Assays:
[1] = target: T1, human GPR40 (Homo sapiens, UniProt O14842); experiment: Inositol phosphate accumulation assay (IP1 HTRF) in CHO-K1 cells expressing human GPR40; format: cell-based; conditions: 90 min
T1 construct: host or cells: CHO-K1
Experimental: CHO-K1 cells expressing human GPR40 were purchased from DiscoverX (95-1005C2). HEK293 cells expressing mouse FFAR1 were prepared using a mouse FFAR1 carrying plasmid purchased from OriGene Technologies (MR222997). The cells were transfected using Lipofectamine 2000 using manufacturer instructions and stable cell line was established from a single cell using geneticine selection. Assay ready frozen (ARF) cells were prepared and used throughout the study.
The assay was performed in a 384-well plate format using IP1 assay kit from Cis-Bio. ARF cells expressing FFAR1 (mouse and human) were thawed, washed and then plated in the appropriate medium (F12 based medium for CHO hFFAR1 and DMEM based medium for HEK293 mFFAR1-both were supplemented with 10% FBS and penicillin/streptomycin). 20 μL of 3.5×10^5 cells/mL were plated on a Poly D-Lysine coated 384-well white plate. The cells were then incubated for 16 hr at 37° C./5% CO2. After 16 hr the medium was removed and 15 μL of stimulation buffer containing the test compounds was added to the cells. The plates were then incubated for 90 min at 37° C./5% CO2. 5 μL of detection buffer (prepared as described in the IP-one kit) was added to each well and the plates were incubated at RT for 1 hr.
[…] was measured using ClarioSTAR plate reader, calculating the ratio between emissions at 665 nm and 620 nm (HTRF ratio). HTRF ratio for positive (Max) and negative (Min) controls were used to normalize HTRF data and generate values for % activity. EC50 and Max activity values were determined using a standard 4-parameter fit.

[2] = In vivo plasma levels in mice after oral gavage, with unbound exposure from plasma protein binding; conditions: male C57BL/6J mice, 30 mg/kg oral gavage; for Exposure (nM) (unbound), unbound exposure in plasma: total exposure x free fraction; for concentration at 2 h / concentration at 5 h: mouse, plasma, read-out: Exposure (nM), total exposure in plasma
Experimental: Male C57BL/6J mice 10-12 weeks old were dosed with test article (30 mg/kg) or vehicle by oral gavage. Animals were euthanized with carbon dioxide at 2 h or 5 h post dose. Blood was collected for measurement of plasma concentrations of test article. Unbound exposure was calculated by multiplying the measured total exposure by the free fraction as assessed from plasma protein binding.
Plasma protein binding to isotonic phosphate buffer (PBS) containing 10% C57 BL/6 mouse plasma was determined using equilibrium dialysis of plasma spiked with test article (2 μM) against a dialysis buffer (100 mM sodium phosphate and 150 mM NaCl). At the end of the dialysis (4 hr), aliquots of the plasma and buffer were processed by protein precipitation for LC-MS/MS analysis to quantitate the test article.
Results for exemplary compounds (total exposure in plasma and unbound exposure in plasma; ratio of EC50 to unbound exposure in plasma) are shown in Table 2.

T1 sequence (O14842 whole entry): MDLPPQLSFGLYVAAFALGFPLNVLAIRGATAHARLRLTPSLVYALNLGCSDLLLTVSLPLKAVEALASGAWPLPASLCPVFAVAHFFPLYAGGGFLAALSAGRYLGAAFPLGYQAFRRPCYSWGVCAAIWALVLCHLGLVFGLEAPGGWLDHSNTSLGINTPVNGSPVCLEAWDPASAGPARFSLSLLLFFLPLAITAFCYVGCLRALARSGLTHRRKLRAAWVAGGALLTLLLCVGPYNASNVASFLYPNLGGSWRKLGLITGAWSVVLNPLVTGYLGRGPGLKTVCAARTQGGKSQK

Compound	EC50 [1] [nM]	further results
COc1cc(-c2ccc(COc3cccc(C(C4CC4)C(C)P(=O)(O)OC)c3)cc2CN(C(C)C)C(C)C)c(F)cn1 (centres unmarked) [Compound 7, methyl hydrogen (1-cyclopropyl-1-(3-((3-((diisopropylamino)methyl)-4-(5-fluoro-2-methoxypyridin-4-yl)benzyl)oxy)phenyl)propan-2-yl)phosphonate]	> 1000	
COc1ccc(F)c(-c2ccc(COc3cccc([C@@H](CP(C)(=O)O)C4CC4)c3)cc2[C@@H](OC)C(C)(C)C)c1 [Compound 24, ((S)-2-cyclopropyl-2-(3-((2′-fluoro-5′-methoxy-2-((S)-1-methoxy-2,2-dimethylpropyl)-[1,1′-biphenyl]-4-yl)methoxy)phenyl)ethyl)(methyl)phosphinic acid]	≤ 50	Exposure (nM) (unbound), unbound exposure in plasma ([2]; 5 h post-dose): 0.03 nM; concentration at 5 h ([2]; 5 h post-dose): 145 nM
COc1cc(-c2ccc(COc3cccc([C@@H](CP(C)(=O)O)C4CC4)c3)cc2[C@@H](OC)C(C)(C)C)c(F)cn1 [Compound 25, ((S)-2-cyclopropyl-2-(3-((4-(5-fluoro-2-methoxypyridin-4-yl)-3-((S)-1-methoxy-2,2-dimethylpropyl)benzyl)oxy)phenyl)ethyl)(methyl)phosphinic acid]	≤ 50	Exposure (nM) (unbound), unbound exposure in plasma ([2]; 2 h post-dose): 1.1 nM; concentration at 2 h ([2]; 2 h post-dose): 1840 nM
CO[C@H](c1cc(COc2cccc([C@@H](CP(C)(=O)O)C3CC3)c2)ccc1-c1cc(O)ccc1F)C(C)(C)C [Compound 26, ((S)-2-cyclopropyl-2-(3-((2′-fluoro-5′-hydroxy-2-((S)-1-methoxy-2,2-dimethylpropyl)-[1,1′-biphenyl]-4-yl)methoxy)phenyl)ethyl)(methyl)phosphinic acid]	≤ 50	
COc1ccc(F)c(-c2ccc(COc3cc([C@@H](CP(C)(=O)O)C4CC4)ccn3)cc2[C@@H](OC)C(C)(C)C)c1 [Compound 27, ((S)-2-cyclopropyl-2-(2-((2′-fluoro-5′-methoxy-2-((S)-1-methoxy-2,2-dimethylpropyl)-[1,1′-biphenyl]-4-yl)methoxy)pyridin-4-yl)ethyl)(methyl)phosphinic acid]	≤ 50	
COc1cc(-c2ccc(COc3cc([C@@H](CP(C)(=O)O)C4CC4)ccn3)cc2[C@@H](OC)C(C)(C)C)c(F)cn1 [Compound 28, ((S)-2-cyclopropyl-2-(2-((4-(5-fluoro-2-methoxypyridin-4-yl)-3-((S)-1-methoxy-2,2-dimethylpropyl)benzyl)oxy)pyridin-4-yl)ethyl)(methyl)phosphinic acid]	≤ 50	
COc1cccc(-c2ccc(COc3cccc([C@@H](CP(C)(=O)O)C4CC4)c3)cc2[C@@H](OC)C(C)(C)C)c1 [Compound 29, ((S)-2-cyclopropyl-2-(3-((3′-methoxy-2-((S)-1-methoxy-2,2-dimethylpropyl)-[1,1′-biphenyl]-4-yl)methoxy)phenyl)ethyl)(methyl)phosphinic acid]	≤ 50	Exposure (nM) (unbound), unbound exposure in plasma ([2]; 5 h post-dose): 0.06 nM; concentration at 5 h ([2]; 5 h post-dose): 140 nM
COc1cccc(-c2ccc(COc3cc([C@@H](CP(C)(=O)O)C4CC4)ccn3)cc2[C@@H](OC)C(C)(C)C)c1 [Compound 30, ((S)-2-cyclopropyl-2-(2-((3′-methoxy-2-((S)-1-methoxy-2,2-dimethylpropyl)-[1,1′-biphenyl]-4-yl)methoxy)pyridin-4-yl)ethyl)(methyl)phosphinic acid]	≤ 50	
CO[C@H](c1cc(COc2cc([C@@H](CP(C)(=O)O)C3CC3)ccn2)ccc1-c1cc(O)ccc1F)C(C)(C)C [Compound 31, ((S)-2-cyclopropyl-2-(2-((2′-fluoro-5′-hydroxy-2-((S)-1-methoxy-2,2-dimethylpropyl)-[1,1′-biphenyl]-4-yl)methoxy)pyridin-4-yl)ethyl)(methyl)phosphinic acid]	≤ 50	
COc1cc(-c2ccc(COc3cccc(C(C)CP(C)(=O)O)c3)cc2[C@@H](OC)C(C)(C)C)c(F)cn1 (stereo partly drawn) [Compound 34, (2-(3-((4-(5-fluoro-2-methoxypyridin-4-yl)-3-((S)-1-methoxy-2,2-dimethylpropyl)benzyl)oxy)phenyl)propyl)(methyl)phosphinic acid]	≤ 50	
COc1cc(-c2ccc(COc3cccc(C[C@@H](C)P(C)(=O)O)c3)cc2[C@@H](OC)C(C)(C)C)c(F)cn1 [Compound 41, ((R)-1-(3-((4-(5-fluoro-2-methoxypyridin-4-yl)-3-((S)-1-methoxy-2,2-dimethylpropyl)benzyl)oxy)phenyl)propan-2-yl)(methyl)phosphinic acid]	≤ 50	

Now from value to compound, other results behind:

EC50 [1] [nM]	Compound	further results
50 to 250	COc1cc(-c2ccc(COc3cccc(C(CP(C)(=O)O)C4CC4)c3)cc2CN(C(C)C)C(C)C)c(F)cn1 (single isomer, unassigned) [Compound 13, (2-cyclopropyl-2-(3-((3-((diisopropylamino)methyl)-4-(5-fluoro-2-methoxypyridin-4-yl)benzyl)oxy)phenyl)ethyl)(methyl)phosphinic acid]	Exposure (nM) (unbound), unbound exposure in plasma ([2]; 2 h post-dose): 1.2 nM; concentration at 2 h ([2]; 2 h post-dose): 294 nM
> 1000	COc1cc(-c2ccc(COc3cccc(C(CP(=O)(O)O)C4CC4)c3)cc2CN(C(C)C)C(C)C)c(F)cn1 (centres unmarked) [Compound 8, (2-cyclopropyl-2-(3-((3-((diisopropylamino)methyl)-4-(5-fluoro-2-methoxypyridin-4-yl)benzyl)oxy)phenyl)ethyl)phosphonic acid]	
> 1000	COc1cc(-c2ccc(OCc3cccc(C(CP(=O)(O)O)C4CC4)c3)cc2CN(C(C)C)C(C)C)c(F)cn1 (centres unmarked) [Compound 9, (2-cyclopropyl-2-(3-((3-((diisopropylamino)methyl)-4-(5-fluoro-2-methoxypyridin-4-yl)phenoxy)methyl)phenyl)ethyl)phosphonic acid]	
> 1000	COc1cc(-c2ccc(COc3cccc(C(CP(C)(=O)O)C4CC4)c3)c(CN(C(C)C)C(C)C)c2)c(F)cn1 (centres unmarked) [Compound 16, (2-cyclopropyl-2-(3-((2-((diisopropylamino)methyl)-4-(5-fluoro-2-methoxypyridin-4-yl)benzyl)oxy)phenyl)ethyl)(methyl)phosphinic acid]	
50 to 250	COc1cc(-c2ccc(OCc3cccc(C(CP(C)(=O)O)C4CC4)c3)cc2CN(C(C)C)C(C)C)c(F)cn1 (centres unmarked) [Compound 21, (2-cyclopropyl-2-(3-((3-((diisopropylamino)methyl)-4-(5-fluoro-2-methoxypyridin-4-yl)phenoxy)methyl)phenyl)ethyl)(methyl)phosphinic acid]	
> 1000	COc1cc(-c2ccc(COc3cccc(C(C4CC4)C(C)(C)P(=O)(O)O)c3)cc2CN(C(C)C)C(C)C)c(F)cn1 (centres unmarked) [Compound 22, (1-cyclopropyl-1-(3-((3-((diisopropylamino)methyl)-4-(5-fluoro-2-methoxypyridin-4-yl)benzyl)oxy)phenyl)-2-methylpropan-2-yl)phosphonic acid]	
> 1000	CCC(C[PH](=O)O)c1cccc(OCc2ccc(-c3cc(OC)ncc3F)c(CN(C(C)C)C(C)C)c2)c1 (centres unmarked) [Compound 23, (2-(3-((3-((diisopropylamino)methyl)-4-(5-fluoro-2-methoxypyridin-4-yl)benzyl)oxy)phenyl)butyl)phosphinic acid]	

Reference: patent publication US20230151037A1, “GPR40 AGONISTS” (Kallyope, Inc., priority 2020, published 2023)
